Patent US20230241071A1, “COMBINATION TREATMENT OF LIVER DISORDERS” (Terns Pharmaceuticals, Inc., priority 2021, published 2023)

Columns and labels:
THR-β = biological target: T1, THR-β (Homo sapiens, UniProt P10828); assay: Binding activity to the thyroxine receptor beta; conditions: for THR-α/-β selectivity: ratio of binding IC50; for IC50: read-out: IC50 THR-β binding force
T1 sequence (P10828 1-461): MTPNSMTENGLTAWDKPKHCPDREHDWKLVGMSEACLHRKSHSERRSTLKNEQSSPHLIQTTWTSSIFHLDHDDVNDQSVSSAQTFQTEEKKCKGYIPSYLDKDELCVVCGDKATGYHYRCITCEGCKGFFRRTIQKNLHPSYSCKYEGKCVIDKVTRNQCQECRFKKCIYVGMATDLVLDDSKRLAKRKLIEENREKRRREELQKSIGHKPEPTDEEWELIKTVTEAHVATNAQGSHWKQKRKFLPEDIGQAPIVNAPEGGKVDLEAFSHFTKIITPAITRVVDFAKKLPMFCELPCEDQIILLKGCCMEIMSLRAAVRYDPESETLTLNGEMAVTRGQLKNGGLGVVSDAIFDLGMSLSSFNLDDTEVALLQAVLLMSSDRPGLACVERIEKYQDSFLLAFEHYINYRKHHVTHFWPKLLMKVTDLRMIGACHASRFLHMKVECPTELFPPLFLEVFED

[1] = Pharmacokinetic evaluation in SD rats; assay type: in vivo, rat; conditions: 2.0 mg/kg intragastric; for half-life: male, rat, plasma, po
Protocol: Drug Preparation: a certain amount of the drug was taken and added into a 2% Klucel LF+0.1% Tween 80 aqueous solution, to prepare a clear solution or a uniform suspension.
Dosage: SD rats were fasted overnight and given the drug by intragastric infusion at an administrated dose of 2 mg/kg and an administrated volume of 10 mL/kg each.
Operation: rats were dosed by intragastric infusion with the compounds. […] The heparinized sample tubes were then stored at −20° C., and the rats were allowed to eat food 2 h after the dosage.
Determination of contents of the compounds to be tested in the plasma of rats after intragastric infusion of the drugs at different concentrations: the plasma samples were thawed at room temperature, 50 μL each was taken and added into 130 μL of an internal standard working solution (1000 ng/mL, acetonitrile, tolbutamide), and the mixture was whirled for about 1 min and then centrifugated at 4° C. and 13000 rpm for 10 min. 50 μL of the supernatant was taken and mixed with 100 μL of 50% acetonitrile water, and then introduced for LC/MS/MS analysis.

Structure (SMILES)	THR-α/-β selectivity (THR-β) [factor]	IC50 (THR-β) [µM]	Curve area [1] [ng·h/mL]	Time to peak [1] [h]	half-life [1] [h]	Peak blood drug concentration [1] [ng/mL]
N#Cc1nn(-c2cc(Cl)c(Oc3n[nH]c(=O)c4c3CCCC4)c(Cl)c2)c(=O)[nH]c1=O [Compound 3]	>8.1	1.23	–	–	–	–
N#Cc1nn(-c2cc(Cl)c(Oc3n[nH]c(=O)c4c(Cl)cccc34)c(Cl)c2)c(=O)[nH]c1=O [Compound 7]	>6.80	1.47	–	–	–	–
O=c1cnn(-c2cc(Cl)c(Oc3n[nH]c(=O)c4ccccc34)c(Cl)c2)c(=O)[nH]1 [Compound 11]	–	0.262	–	–	–	–
CC1(C)CCc2c(Oc3c(Cl)cc(-n4cc(C#N)c(=O)[nH]c4=O)cc3Cl)n[nH]c(=O)c21 [Compound 6]	–	–	9242 ± 1245	5.33 ± 1.15	5.14 ± 0.83	–
CC(C)c1cc(Oc2c(Cl)cc(-n3nc(C#N)c(=O)[nH]c3=O)cc2Cl)n[nH]c1=O [Reference compound, 2-[3,5-Dichloro-4-(5-isopropyl-6-oxo-1,6-dihydropyridazin-3-yloxy)phenyl]-3,5-dioxo-2,3,4,5-tetrahydro[1,2,4]triazine-6-carbonitrile, reference compound]	–	–	12854 ± 961	5.3 ± 1.15	3.53 ± 0.42	1163 ± 97.1
